O=C(NCCO[N+](=O)[O-])c1cccnc1
solubility (mole fraction)
Settings	278.15 K	283.15 K	288.15 K	293.15 K	298.15 K	303.15 K	308.15 K	313.15 K	318.15 K	323.15 K
in DMF	0.0135	0.0146	0.0156	0.0168	0.0179	0.0191	0.0202	0.0213	0.0225	0.024
in ethanol	0.00153	0.00167	0.00181	0.00195	0.00208	0.00222	0.00236	0.0025	0.00264	0.00281
in isopropanol	0.0011	0.00119	0.00129	0.00139	0.00149	0.00159	0.00169	0.00178	0.00188	0.002
in methanol	0.0017	0.00182	0.00195	0.00211	0.00226	0.0024	0.00256	0.00271	0.00286	0.00306
in water	0.000204	0.000222	0.00024	0.000257	0.000275	0.000291	0.000307	0.000325	0.000346	0.000367

Reference: BigSolDB 2.1
